Each compound was assayed on recombinant NL4-3 virus (Renilla luciferase in nef, Gag P373S; NLRluc) in MT-2 cells (assay: whole plant or invertebrate). Conditions: Renilla, NL43.
Format: cell-based, HIV
In short: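 Virus from 293T transfection, titered in MT-2 by luciferase. MT-2 (RPMI, 10% HI-FBS) infected ± inhibitor serial dilutions, 4-5 d. Readout: Dual Luciferase premix (lysis:reagent:Stop & Glo 2:1:1), immediate luminescence.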

Compound	EC50
C=C(C)[C@@H]1CC[C@]2(NCCNC3CCS(=O)(=O)C3)CC[C@]3(C)[C@H](CC[C@@H]4[C@@]5(C)CC=C(c6ccc(C(=O)O)cc6)C(C)(C)[C@@H]5CC[C@]43C)[C@@H]12 (stereo partly drawn) [Example B8, 4-((1R,3aS,5aR,5bR,7aR,11aS,11bR,13aR,13bR)-3a-((2-((1,1-dioxidotetrahydrothiophen-3-yl)amino)ethyl)amino)-5a,5b,8,8,11a-pentamethyl-1-(prop-1-en-2-yl)-2,3,3a,4,5,5a,5b,6,7,7a,8,11,11a,11b,12,13,13a,13b-octadecahydro-1H-cyclopenta[a]chrysen-9-yl)benzoic acid]	< 100 nM

Same assay, conditions: Renilla, NL43, luciferase activity in cells infected for 4-5 days with NLRluc recombinants, serial dilutions of inhibitor; class symbols (key in Table 1); read-out: EC50

Compound	EC50
C=C(C)[C@@H]1CC[C@]2(NCCNS(=O)(=O)CCC)CC[C@]3(C)[C@H](CC[C@@H]4[C@@]5(C)CC=C(c6ccc(C(=O)O)cc6)C(C)(C)[C@@H]5CC[C@]43C)[C@@H]12 [Example B34, 4-((1R,3aS,5aR,5bR,7aR,11aS,11bR,13aR,13bR)-5a,5b,8,8,11a-pentamethyl-1-(prop-1-en-2-yl)-3a-((2-(propylsulfonamido)ethyl)amino)-2,3,3a,4,5,5a,5b,6,7,7a,8,11,11a,11b,12,13,13a,13b-octadecahydro-1H-cyclopenta[a]chrysen-9-yl)benzoic acid]	< 100 nM
C=C(C)[C@@H]1CC[C@]2(NC(=O)NCCc3c[nH]cn3)CC[C@]3(C)[C@H](CC[C@@H]4[C@@]5(C)CC=C(c6ccc(C(=O)O)cc6)C(C)(C)[C@@H]5CC[C@]43C)[C@@H]12 [Example 13, 4-((1R,3aS,5aR,5bR,7aR,11aS,11bR,13aR,13bR)-3a-(3-(2-(1H-imidazol-4-yl)ethyl)ureido)-5a,5b,8,8,11a-pentamethyl-1-(prop-1-en-2-yl)-2,3,3a,4,5,5a,5b,6,7,7a,8,11,11a,11b,12,13,13a,13b-octadecahydro-1H-cyclopenta[a]chrysen-9-yl)benzoic acid]	< 100 nM
C=C(C)[C@@H]1CC[C@]2(NCCN3CCN(S(=O)(=O)C4CC4)CC3)CC[C@]3(C)[C@H](CC[C@@H]4[C@@]5(C)CC=C(c6ccc(C(=O)O)cc6)C(C)(C)[C@@H]5CC[C@]43C)[C@@H]12 [Example B22, 4-((1R,3aS,5aR,5bR,7aR,11aS,11bR,13aR,13bR)-3a-((2-(4-(cyclopropylsulfonyl)piperazin-1-yl)ethyl)amino)-5a,5b,8,8,11a-pentamethyl-1-(prop-1-en-2-yl)-2,3,3a,4,5,5a,5b,6,7,7a,8,11,11a,11b,12,13,13a,13b-octadecahydro-1H-cyclopenta[a]chrysen-9-yl)benzoic acid]	< 100 nM
C=C(C)[C@@H]1CC[C@]2(NCCN3CCN(C(=O)C4CC4)CC3)CC[C@]3(C)[C@H](CC[C@@H]4[C@@]5(C)CC=C(c6ccc(C(=O)O)cc6)C(C)(C)[C@@H]5CC[C@]43C)[C@@H]12 [Example B62, 4-((1R,3aS,5aR,5bR,7aR,11aS,11bR,13aR,13bR)-3a-((2-(4-(cyclopropanecarbonyl)piperazin-1-yl)ethyl)amino)-5a,5b,8,8,11a-pentamethyl-1-(prop-1-en-2-yl)-2,3,3a,4,5,5a,5b,6,7,7a,8,11,11a,11b,12,13,13a,13b-octadecahydro-1H-cyclopenta[a]chrysen-9-yl)benzoic acid]	< 100 nM
C=C(C)[C@@H]1CC[C@]2(NC(=O)N(CCCN(C)C)CCCN(C)C)CC[C@]3(C)[C@H](CC[C@@H]4[C@@]5(C)CC=C(c6ccc(C(=O)O)cc6)C(C)(C)[C@@H]5CC[C@]43C)[C@@H]12 [Example 30, 4-((1R,3aS,5aR,5bR,7aR,11aS,11bR,13aR,13bR)-3a-(3,3-bis(3-(dimethylamino)propyl)ureido)-5a,5b,8,8,11a-pentamethyl-1-(prop-1-en-2-yl)-2,3,3a,4,5,5a,5b,6,7,7a,8,11,11a,11b,12,13,13a,13b-octadecahydro-1H-cyclopenta[a]chrysen-9-yl)benzoic acid]	< 100 nM
C=C(C)[C@@H]1CC[C@]2(NC(=O)Cn3ccnc3)CC[C@]3(C)[C@H](CC[C@@H]4[C@@]5(C)CC=C(c6ccc(C(=O)O)cc6)C(C)(C)[C@@H]5CC[C@]43C)[C@@H]12 [Example 89, 4-((1R,3aS,5aR,5bR,7aR,11aS,11bR,13aR,13bR)-3a-(2-(1H-imidazol-1-yl)acetamido)-5a,5b,8,8,11a-pentamethyl-1-(prop-1-en-2-yl)-2,3,3a,4,5,5a,5b,6,7,7a,8,11,11a,11b,12,13,13a,13b-octadecahydro-1H-cyclopenta[a]chrysen-9-yl)benzoic acid]	< 100 nM
C=C(C)[C@@H]1CC[C@]2(NC(=O)OCCCN3CCS(=O)(=O)CC3)CC[C@]3(C)[C@H](CC[C@@H]4[C@@]5(C)CC=C(c6ccc(C(=O)O)cc6)C(C)(C)[C@@H]5CC[C@]43C)[C@@H]12 [Example 70, benzoic acid, 4-[(1R,3aS,5aR,5bR,7aR,11aS,11bR,13aR,13bR)-3a-[[[3-(1,1-dioxido-4-thiomorpholinyl)propoxy]carbonyl]amino]2,3,3a,4,5,5a,5b,6,7,7a,8,11,11a,11b,12,13,13a,13b-octadecahydro-5a,5b,8,8,11a-pentamethyl-1-(1-methylethenyl)-1H-cyclopenta[a]chrysen-9-yl]]	< 100 nM
C=C(C)[C@@H]1CC[C@]2(NC(=O)CN3CCOCC3)CC[C@]3(C)[C@H](CC[C@@H]4[C@@]5(C)CC=C(c6ccc(C(=O)O)cc6)C(C)(C)[C@@H]5CC[C@]43C)[C@@H]12 [Example 97, 4-((1R,3aS,5aR,5bR,7aR,11aS,11bR,13aR,13bR)-5a,5b,8,8,11a-pentamethyl-3a-(2-morpholinoacetamido)-1-(prop-1-en-2-yl)-2,3,3a,4,5,5a,5b,6,7,7a,8,11,11a,11b,12,13,13a,13b-octadecahydro-1H-cyclopenta[a]chrysen-9-yl)benzoic acid]	< 100 nM
C=C(C)[C@@H]1CC[C@]2(NCCN3CCN(C(=O)C4CCC4)CC3)CC[C@]3(C)[C@H](CC[C@@H]4[C@@]5(C)CC=C(c6ccc(C(=O)O)cc6)C(C)(C)[C@@H]5CC[C@]43C)[C@@H]12 [Example B54, 4-((1R,3aS,5aR,5bR,7aR,11aS,11bR,13aR,13bR)-3a-((2-(4-(cyclobutanecarbonyl)piperazin-1-yl)ethyl)amino)-5a,5b,8,8,11a-pentamethyl-1-(prop-1-en-2-yl)-2,3,3a,4,5,5a,5b,6,7,7a,8,11,11a,11b,12,13,13a,13b-octadecahydro-1H-cyclopenta[a]chrysen-9-yl)benzoic acid]	< 100 nM
C=C(C)[C@@H]1CC[C@]2(NC(=O)C(C(C)C)N3CCS(=O)(=O)CC3)CC[C@]3(C)[C@H](CC[C@@H]4[C@@]5(C)CC=C(c6ccc(C(=O)O)cc6)C(C)(C)[C@@H]5CC[C@]43C)[C@@H]12 (single isomer, unassigned) [Example 110]	< 100 nM

Same assay, conditions: Renilla, NL43, luciferase activity in cells infected for 4-5 days with NLRluc recombinants, serial dilutions of inhibitor; numeric values; read-out: EC50

Compound	EC50
C=C(C)[C@@H]1CC[C@]2(NCC(OC)OC)CC[C@]3(C)[C@H](CC[C@@H]4[C@@]5(C)CC=C(c6ccc(C(=O)O)cc6)C(C)(C)[C@@H]5CC[C@]43C)[C@@H]12 [Example 156, 4-((1R,3aS,5aR,5bR,7aR,11aS,11bR,13aR,13bR)-3a-(2,2-dimethoxyethylamino)-5a,5b,8,8,11a-pentamethyl-1-(prop-1-en-2-yl)-2,3,3a,4,5,5a,5b,6,7,7a,8,11,11a,11b,12,13,13a,13b-octadecahydro-1H-cyclopenta[a]chrysen-9-yl)benzoic acid]	120 nM

— patent US20140343000A1 (priority 2011, published 2014)
